Laboratory results reported in patent US20120034193A1, “TREATMENT OF NEUROTROPHIC FACTOR MEDIATED DISORDERS” (priority 2009, published 2012).
Marks after values point to notes of the source that are not given here.

Assays:
[1] = tested on: BDNF; assay: BDNF protein in culture medium of rat cortical neurones exposed to β-amyloid; assay type: cell-based; conditions: 10 μM pre-incubation 48 h, then β-amyloid 10 μg/ml 48 h
Description: Rat cortical neurones were cultured by modification of a method previously described (Eckenstein and Sofroniew, Journal of Neuroscience, 1983, 3, pp. 2286-2291). On day 8, the culture medium was changed to a medium containing vehicle (DMSO, 0.5%) or smilagenin or sarsasapogenin (10 μM). On day 10, rat primary cortical neurones were exposed to β-amyloid (10 μg/ml) for 48 h at 37° C. and the concentration of BDNF in the culture medium, the number of choline acetyltransferase (ChAT) positive cells, and the neurite outgrowth was measured (smilagenin only).

[2] = tested on: Rat spinal motor neurones; assay: Neuronal survival and neurite outgrowth in spinal motor neurones; assay type: cell-based; conditions: 3 days
Description: Rat spinal motor neurones were prepared according to a previously described method (Martinou et al, Neuron, 8, 737-744, 1992). Following 3 days of culturing with sarsasapogenin, smilagenin, vehicle (DMSO, 0.25%), Xaliproden, or BDNF, spinal cord motor neurones were washed twice in PBS, fixed in a cold solution of alcohol (95%) and acetic acid (5%) for 5 min and then rinsed 3 times in PBS. Neurones were stained using a monoclonal antibody anti β-tubulin and an anti mouse Immunoglobulin G. These antibodies stained neurone cell bodies (quantifying the neuroprotective effect) and neurites (quantifying the neurotrophic effect). The cell nuclei were stained by a fluorescent marker. After 1 h of incubation, cells were washed 3 times in PBS. […] A series of pictures were taken using a camera controlled by computer software. All the images were taken under the same conditions. Analyses of the number of cells labelled with anti β-tubulin antibodies and of the total number of cells (number of stained nuclei) were performed using LUCIA 6.0 software.

[3] = tested on: Vascular Endothelial Growth Factor (VEGF); assay: Binding assay; design: species or system Human; conditions: smilagenin 1 μM
Description: (§1) The receptor binding was investigated using the following method: Sarsasapogenin was incubated with tissue or cell homogenate that expressed the receptor of interest and a known concentration a radiolabelled compound with affinity for the receptor of interest. After the incubation period the non-bound radiolabelled compound was removed and the amount of specific binding was quantified. The amount of specific binding in the presence and absence of sarsasapogenin were compared and the percent inhibition of the binding of the radiolabelled compound by sarsasapogenin was calculated. The source of the receptor, the incubation conditions, the radiolabelled compound used varied depending on each specific assay.
(§2) Using the same methods as described above, the binding of smilagenin (1 μM) to the receptors listed in Table 2 below, and the effect of smilagenin on the activity of the enzymes listed in Table 2 below, were investigated.

[4] = tested on: Chemokine CXCR1; assay: Binding assay; design: species or system Human; conditions: smilagenin 1 μM
Description: as §1, §2

[5] = tested on: Nicotinic Acetylcholine; assay: Binding assay; design: species or system Human; conditions: smilagenin 1 μM
Description: as §1, §2

[6] = tested on: Tumour Necrosis Factor (TNF), non-selective; assay: Binding assay; design: species or system Human; conditions: smilagenin 1 μM
Description: as §1, §2

[7] = tested on: Rat primary dopaminergic neurones; assay: Reversal of MPP+-induced damage in dopaminergic neurones; assay type: cell-based; conditions: 30 nM for 48 h after MPP+ 2 μM 24 h
Description: Rat primary dopaminergic neurones were prepared as described above. On day 5, MPP^+ (2 μM) was added to the cultures for 24 h in culture medium at 37° C. in 5% CO2/95% air atmosphere. Exposure of rat primary dopaminergic neurones to MPP^+ (2 μM, 24 h) causes a significant decrease in the number of dopaminergic neurones compared to the control. On day 6 the medium was removed and fresh medium containing vehicle (DMSO, 0.25%), sarsasapogenin, smilagenin or a combinations of BDNF and GDNF was added. After 48 h, the extent of dopaminergic damage was determined as detailed above.

[8] = tested on: rat primary cortical neurones; assay: Inhibition of induced neurite outgrowth by K252a or PD98059; assay type: cell-based; conditions: 30 nM, 24 h
Description: (§3) Cortical neurones were cultured as detailed above. Neurones were exposed to vehicle (DMSO, 0.25%) or K252a (100 nM) for 1 h. After 1 h, vehicle, sarsasapogenin, smilagenin (30 nM) or BDNF (1.85 nM) was added to the medium in the maintained presence of K252a. Following 24 h exposure to sarsasapogenin or smilagenin (30 nM), vehicle (DMSO, 0.25%) or BDNF (1.85 nM), the neurones were washed using phosphate-buffered saline (PBS) and fixed in glutaraldehyde (2.5%) in PBS. Photographs of 40-60 neurones expressing neurites were taken with a camera fixed on a microscope (objective ×20, Nikon). The neurite length was measured by an analysis of the photographs.
as §3, with “PD98059 (10 μM)” for “K252a (100 nM)”, “vehicle,” for “vehicle, sarsasapogenin,”, “PD98059.” for “K252a.”, “to” for “to sarsasapogenin or”, “PBS” for “phosphate-buffered saline (PBS)”

[9] = tested on: Glycine, Strychnine-Sensitive; assay: Binding assay; design: species or system Rat; conditions: smilagenin 1 μM
[10] = tested on: rat primary cortical neurones; assay: Pre-treatment against glutamate-induced damage (LDH) in cortical neurones; assay type: cell-based; conditions: for Neuronal survival (% of control): 24 h before and 24 h after glutamate 100 μM 10 min; for Toxicity at the plateau of activity: nanomolar concentration, cortical neurones in vitro
Description: Exposure of rat primary cortical neurones to glutamate increases lactate dehydrogenase (LDH) activity measured 24 h after glutamate exposure, indicating significant neuronal damage. Rat cortical neurones were cultured by modification of a method previously described (Singer, et al., Neuroscience Letters, 1996, 212, pp. 13-16). On day 10 of culture, the medium was changed to a serum-free defined medium. On day 12, the cultures were washed and placed for 24 h in fresh medium containing test compound or vehicle (DMSO, 0.25%). On day 13 neurones were exposed to glutamate (100 μM; 10 min) at 37° C. The cultures were then washed with, and placed in, fresh medium supplemented with test compound or vehicle for a further 24 h before LDH was measured. Neuronal damage was assessed by measuring LDH activity in the media at 24 h after glutamate exposure.

[11] = target: T1, Histamine H1 (Cavia porcellus, UniProt P31389); assay: Receptor binding assay; design: species or system Guinea Pig; conditions: sarsasapogenin 10 μM
T1 construct: host or cells: tissue or cell homogenate, not specified
Description: as §1

T1 sequence (P31389 whole entry): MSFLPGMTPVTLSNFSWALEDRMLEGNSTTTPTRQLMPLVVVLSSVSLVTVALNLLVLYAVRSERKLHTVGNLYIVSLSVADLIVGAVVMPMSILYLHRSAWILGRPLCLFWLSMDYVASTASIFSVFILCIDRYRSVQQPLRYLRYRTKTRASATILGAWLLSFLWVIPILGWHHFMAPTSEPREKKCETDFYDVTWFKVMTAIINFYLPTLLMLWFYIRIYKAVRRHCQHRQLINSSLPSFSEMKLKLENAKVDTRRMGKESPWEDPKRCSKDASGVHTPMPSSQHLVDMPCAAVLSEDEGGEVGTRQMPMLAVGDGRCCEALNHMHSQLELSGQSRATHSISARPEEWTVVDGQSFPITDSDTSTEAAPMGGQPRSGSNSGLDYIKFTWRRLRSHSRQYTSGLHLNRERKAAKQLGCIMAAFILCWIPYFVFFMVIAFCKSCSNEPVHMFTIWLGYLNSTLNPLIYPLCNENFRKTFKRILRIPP

C[C@@H]1CC[C@@]2(OC1)O[C@H]1C[C@H]3[C@@H]4CC[C@@H]5C[C@@H](O)CC[C@]5(C)[C@H]4CC[C@]3(C)[C@H]1[C@@H]2C [Smilagenin, smilagenin]
BDNF concentration (pg/ml) [1]: 4.20 ± 0.06****^,++++ pg/ml
Neurite outgrowth (% of control) ([2]; 30 nM): 163.66 ± 9.28 % of control
Neuronal survival (% of control) ([2]; 30 nM): 120.11 ± 2.92 % of control
Neurite outgrowth (% of control) ([2]; 100 nM): 164.75 ± 5.57 % of control
Neuronal survival (% of control) ([2]; 100 nM): 121.21 ± 2.75 % of control
Effect (%) [3]: NS (NS = No significant response. Significance was taken as ≧30% stimulation or inhibition)
Effect (%) [4]: NS (NS = No significant response. Significance was taken as ≧30% stimulation or inhibition)
Effect (%) [5]: NS (NS = No significant response. Significance was taken as ≧30% stimulation or inhibition)
Effect (%) [6]: NS (NS = No significant response. Significance was taken as ≧30% stimulation or inhibition)
Neuronal survival (% of control) [7]: 113.44 ± 4.62 % of control
Neurite length (% of control) ([8]; no inhibitor): 146.78 ± 6.75^++++ % of control
Neurite length (% of control) ([8]; with K252a (100 nM)): 94.36 ± 3.96 % of control
Neurite length (% of control) ([8]; with PD98059 (10 μM)): 120.27 ± 5.80 % of control
Effect (%) [9]: NS (NS = No significant response. Significance was taken as ≧30% stimulation or inhibition)
Neuronal survival (% of control) ([10]; 1 nM): 81.53 ± 1.66 % of control
Neuronal survival (% of control) ([10]; 3 nM): 78.19 ± 1.85 % of control
Neuronal survival (% of control) ([10]; 10 nM): 82.50 ± 1.00 % of control
Neuronal survival (% of control) ([10]; 30 nM): 89.86 ± 3.55 % of control
Neuronal survival (% of control) ([10]; 100 nM): 82.45 ± 2.18 % of control
Toxicity at the plateau of activity [10]: without causing any toxicity

C[C@H]1CC[C@@]2(OC1)O[C@H]1C[C@H]3[C@@H]4CC[C@@H]5C[C@@H](O)CC[C@]5(C)[C@H]4CC[C@]3(C)[C@H]1[C@@H]2C [Sarsasapogenin, sarsasapogenin]
Effect (%) [11]: NS (NS = No significant response. Significance was taken as ≧30% stimulation or inhibition)
BDNF concentration (pg/ml) [1]: 9.31 ± 0.15^++++,**** pg/ml
Neurite outgrowth (% of control) ([2]; 30 nM): 129.98 ± 5.47 % of control
Neuronal survival (% of control) ([2]; 30 nM): 119.14 ± 3.33 % of control
Neurite outgrowth (% of control) ([2]; 100 nM): 137.38 ± 7.93 % of control
Neuronal survival (% of control) ([2]; 100 nM): 117.87 ± 3.63 % of control
Neuronal survival (% of control) [7]: 104.30 ± 5.63 % of control
Neurite length (% of control) ([8]; no inhibitor): 126.74 ± 5.76^++++ % of control
Neurite length (% of control) ([8]; with K252a (100 nM)): 93.12 ± 2.88 % of control
Neuronal survival (% of control) ([10]; 1 nM): 76.88 ± 2.79 % of control
Neuronal survival (% of control) ([10]; 3 nM): 77.23 ± 2.62 % of control
Neuronal survival (% of control) ([10]; 10 nM): 73.50 ± 3.05 % of control
Neuronal survival (% of control) ([10]; 30 nM): 78.91 ± 2.97 % of control
Neuronal survival (% of control) ([10]; 100 nM): 76.30 ± 4.15 % of control
Toxicity at the plateau of activity [10]: without causing any toxicity
